Measured values as given in ChEMBL document CHEMBL1800038, “Kabiramides J and K, trisoxazole macrolides from the sponge Pachastrissa nux” (J Nat Prod, 2011).
Active and inactive are the calls of the source. The calls are words filed in the database; no cut-off is given here.

What was measured:
[1] = tested on: Plasmodium falciparum; assay: Antimalarial activity against multidrug-resistance Plasmodium falciparum K1 assessed as growth inhibition by microdilution radioisotope technique; format: functional, organism-based
[2] = tested on: MCF7; assay: Cytotoxicity against human MCF7 cells by SRB assay; format: functional, cell-based
[3] = Cytotoxicity against human Fibroblasts by SRB assay; format: cell-based; conditions: Fibroblast
[4] = tested on: Plasmodium falciparum; assay: Antimalarial activity against multidrug-resistance Plasmodium falciparum K1 assessed as growth inhibition at […] by microdilution radioisotope technique; format: functional, organism-based

SMILES | IC50 [1] | IC50 [2] | IC50 [3] | inhibition [4]
CO[C@H]1C/C=C/c2nc(co2)-c2nc(co2)-c2nc(co2)[C@H](OC)[C@@H](C)[C@@H](O)C[C@@H](C)C[C@H](O)CC(=O)O[C@@H](C[C@H](OC)[C@@H](C)CCC(=O)/C(C)=C/[C@H](C)/C=C/N(C)C=O)[C@@H]1C [KABIRAMIDE K] | 390 nM | 70 nM | – | –
CO[C@@H](C[C@@H]1OC(=O)C[C@@H](OC(N)=O)C[C@H](C)C[C@H](O)[C@H](C)[C@@H](OC)c2coc(n2)-c2coc(n2)-c2coc(n2)/C=C/C[C@H](O)[C@H]1C)[C@@H](C)CCC(=O)/C(C)=C/[C@H](C)/C=C/N(C)C=O [KABIRAMIDE J] | 310 nM | 20 nM | – | –
CO[C@H]([C@H](C)/C=C/N(C)C=O)[C@@H](C)C(=O)CC[C@H](C)[C@H](C[C@@H]1OC(=O)C[C@@H](O)C[C@H](C)C[C@H](O)[C@H](C)[C@@H](OC)c2coc(n2)-c2coc(n2)-c2coc(n2)/C=C/C[C@H](OC)[C@H]1C)OC [KABIRAMIDE D] | 1870 nM | 20 nM | 500 nM | –
CO[C@H]([C@H](C)/C=C/N(C)C=O)[C@@H](C)C(=O)CC[C@H](C)[C@H](C[C@@H]1OC(=O)C[C@@H](OC(N)=O)C[C@H](C)C[C@H](O)[C@H](C)[C@@H](OC)c2coc(n2)-c2coc(n2)-c2coc(n2)/C=C/C[C@H](O)[C@H]1C)OC [KABIRAMIDE B] | 1670 nM | 450 nM | 950 nM | –
C[C@H]1[C@@H](O)O[C@@H]2O[C@@]3(C)CC[C@H]4[C@H](C)CC[C@@H]1[C@@]24OO3 [ARTENIMOL] | 3.8 nM | – | – | –
CO[C@H]([C@H](C)/C=C/N(C)C=O)[C@@H](C)C(=O)CC[C@H](C)[C@H](C[C@@H]1OC(=O)C[C@@H](OC(N)=O)C[C@H](C)C[C@H](O)[C@H](C)[C@@H](OC)c2coc(n2)-c2coc(n2)-c2coc(n2)/C=C/C[C@H](OC)[C@H]1C)OC [KABIRAMIDE C] | 4790 nM | 470 nM | 7590 nM | –
CO[C@H]1C/C=C/c2nc(co2)-c2nc(co2)-c2nc(co2)[C@H](OC)[C@@H](C)[C@@H](O)C[C@@H](C)C[C@H](OC(N)=O)CC(=O)O[C@@H](C[C@H](OC)[C@@H](C)CCC(=O)/C(C)=C/[C@H](C)/C=C/N(C)C=O)[C@@H]1C [KABIRAMIDE G] | – | 20 nM | 2370 nM | inactive
CC[C@@]1(O)C(=O)OCc2c1cc1n(c2=O)Cc2cc3ccccc3nc2-1 [CAMPTOTHECIN] | – | 1.6 nM | 459 nM | –
